Results taken from publication PMC10108347, “Heterobifunctional Ligase Recruiters Enable pan-Degradation of Inhibitor of Apoptosis Proteins” (Journal of Medicinal Chemistry, 2023).
Read-outs that look alike come from different tables or passages of the source. One block for each molecule: values may come before it.

Tests used:
XIAP = XIAP (Homo sapiens, UniProt P98170); assay: diaPASEF quantitative proteomics in MM.1S cells: XIAP; assay type: cell-based; set-up: endogenous in cells; host or cells: MM.1S; details: 3 h; for logFC XIAP: 0.1 μM, log2 fold change compound vs CTRLs (limma); for XIAP level in global proteomics (in words): 100 nM, diaPASEF
Sequence of XIAP (P98170 whole entry): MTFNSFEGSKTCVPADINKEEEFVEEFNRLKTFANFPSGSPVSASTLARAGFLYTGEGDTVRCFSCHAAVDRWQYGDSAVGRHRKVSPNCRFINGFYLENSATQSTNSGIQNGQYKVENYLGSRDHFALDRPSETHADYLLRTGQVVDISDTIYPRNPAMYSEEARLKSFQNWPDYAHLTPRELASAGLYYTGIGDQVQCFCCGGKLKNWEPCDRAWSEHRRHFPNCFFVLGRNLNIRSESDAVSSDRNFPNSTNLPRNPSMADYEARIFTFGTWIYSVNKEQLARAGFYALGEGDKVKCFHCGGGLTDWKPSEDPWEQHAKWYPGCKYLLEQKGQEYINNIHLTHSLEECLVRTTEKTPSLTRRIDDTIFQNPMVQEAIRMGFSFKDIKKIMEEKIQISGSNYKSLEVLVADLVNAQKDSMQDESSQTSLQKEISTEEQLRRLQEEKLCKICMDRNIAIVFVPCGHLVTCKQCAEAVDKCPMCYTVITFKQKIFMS
Experimental: To analyze the proteome-wide degradation selectivity of hetero-PROTACs 9, 25, and 27, a diaPASEF-based mass spectrometry approach was employed.[54] MM.1S cells were treated with 100 nM PROTACs for 3 h. […] Accordingly, global proteomic plots show the mathematically imputed levels of IAP proteins in treatment groups if the corresponding IAP was detected in the control treatment (see also Experimental Section).
MM1s cells were treated with DMSO or 0.1 μM of compound for 3 h. The cells were harvested by centrifugation and washed with phosphate-buffered saline before snap-freezing in liquid nitrogen. The cells were lysed by addition of lysis buffer (8 M urea, 50 mM NaCl, 50 mM 4-(2-hydroxyethyl)-1-piperazine-ethanesulfonic acid (EPPS) pH 8.5, protease, and phosphatase inhibitors) and homogenization by bead beating (BioSpec) for three repeats of 30 s at 2400. Bradford assay was used to determine the final protein concentration in the clarified cell lysate. 50 μg of protein for each sample was reduced, alkylated, and precipitated using methanol/chloroform as previously described,[64] and the resulting washed precipitated protein was allowed to air dry. The precipitated protein was resuspended in 4 M urea, 50 mM HEPES pH 7.4, followed by dilution to 1 M urea with the addition of 200 mM EPPS, pH 8. Proteins were first digested with LysC (1:50; enzyme/protein) for 12 h at RT. The LysC digestion was diluted to 0.5 M urea with 200 mM EPPS pH 8, followed by digestion with trypsin (1:50; enzyme/protein) for 6 h at 37 °C. Sample digests were acidified with formic acid to a pH of 2–3 prior to desalting using C18 solid-phase extraction plates (SOLA, Thermo Fisher Scientific). Desalted peptides were dried in a vacuum centrifuge and reconstituted in 0.1% formic acid for LC–MS analysis.
Data were collected using a TimsTOF Pro2 (Bruker Daltonics, Bremen, Germany) coupled to a nanoElute LC pump (Bruker Daltonics, Bremen, Germany) via a CaptiveSpray nanoelectrospray source. Peptides were separated on a reversed-phase C18 column (25 cm × 75 μm ID, 1.6 μM, IonOpticks, Australia) containing an integrated captive spray emitter. Peptides were separated using a 50 min gradient of 2–30% buffer B (acetonitrile in 0.1% formic acid) with a flow rate of 250 nL/min and column temperature maintained at 50 °C.
Data-Dependent Acquisition (DDA) was performed in the Parallel Accumulation-Serial Fragmentation (PASEF) mode to determine effective ion mobility windows for downstream diaPASEF data collection.[54] The diaPASEF parameters included 100% duty cycle using accumulation and ramp times of 50 ms each, 1 TIMS-MS scan, and 10 PASEF ramps per acquisition cycle. The TIMS-MS survey scan was acquired between 100–1700 m/z and 1/K0 of 0.7–1.3 V × s/cm^2. Precursors with 1–5 charges were selected, and those that reached an intensity threshold of 20,000 arbitrary units were actively excluded for 0.4 min. The quadrupole isolation width was set to 2 m/z for m/z < 700 and 3 m/z for m/z > 800, with the m/z between 700 and 800 m/z being interpolated linearly. The TIMS elution voltages were calibrated linearly with three points (Agilent ESI-L Tuning Mix Ions; 622, 922, 1222 m/z) to determine the reduced ion mobility coefficients (1/K0). To perform diaPASEF, the precursor distribution in the DDA m/z-ion mobility plane was used to design an acquisition scheme for DIA data collection, which included two windows in each 50 ms diaPASEF scan. Data was acquired using 16 of these 25 Da precursor double window scans (creating 32 windows), which covered the diagonal scan line for doubly and triply charged precursors, with singly charged precursors able to be excluded by their position in the m/z-ion mobility plane. These precursor isolation windows were defined between 400–1200 m/z and 1/K0 of 0.7–1.3 V × s/cm^2. […]

cIAP1 = cIAP1 (Homo sapiens, UniProt Q13490); assay: Immunoblotting (western blot) quantification of cIAP1 levels in MM.1S cells; set-up: Dmax: dose or concentration left out as unconfirmed
Sequence of cIAP1 (Q13490 whole entry): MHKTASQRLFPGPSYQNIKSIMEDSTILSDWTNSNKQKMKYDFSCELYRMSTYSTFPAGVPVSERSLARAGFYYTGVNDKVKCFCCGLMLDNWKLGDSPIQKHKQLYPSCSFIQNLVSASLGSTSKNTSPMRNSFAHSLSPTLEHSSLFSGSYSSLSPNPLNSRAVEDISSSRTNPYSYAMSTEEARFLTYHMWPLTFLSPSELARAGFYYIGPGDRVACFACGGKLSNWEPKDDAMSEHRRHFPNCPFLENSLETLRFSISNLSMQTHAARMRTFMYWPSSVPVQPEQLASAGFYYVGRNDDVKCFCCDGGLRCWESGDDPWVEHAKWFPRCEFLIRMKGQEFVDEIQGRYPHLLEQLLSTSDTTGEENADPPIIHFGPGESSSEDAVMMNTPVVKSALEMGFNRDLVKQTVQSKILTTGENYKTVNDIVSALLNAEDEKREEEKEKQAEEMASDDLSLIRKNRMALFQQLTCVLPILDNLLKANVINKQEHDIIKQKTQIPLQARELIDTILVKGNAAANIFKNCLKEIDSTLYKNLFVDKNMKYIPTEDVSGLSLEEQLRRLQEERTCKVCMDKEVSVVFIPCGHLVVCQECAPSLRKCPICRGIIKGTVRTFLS
Experimental: To evaluate the capability of our panel of hetero-PROTACs for E3 ligase degradation, VHL19, VHL30, CRBN, cIAP1, cIAP2, and XIAP levels were quantified by western blot analyses. […] SDS-PAGE was performed, and proteins were then transferred onto PVDF membranes. Blotted membranes were blocked with 5% milk in Tris-buffered saline/Tween20 (TBST). Primary antibodies were diluted in 5% BSA in TBST, and incubations were performed overnight at 4 °C. Secondary HRP-conjugated antibodies diluted in 5% milk were incubated for 1 h at room temperature. Detection of proteins on PVDF was carried out using the WesternBright ECL HRP substrate or the WesternBright Sirius HRP substrate (Advansta, San Jose, USA) and imaged with LAS 4000× (Fujifilm). Membranes were subjected to 10 min incubation with Restore Western Blot Stripping Buffer (Thermo Fisher Scientific, Waltham, USA), followed by TBST washes. After brief re-activation with methanol, the membranes were blocked, and further probing of proteins was carried out.
Quantification of blots was performed using ImageJ software (National Institutes of Health).

HEL = assay: CellTiter-Glo cell viability assay, HEL; assay type: cell-based; details: Homo sapiens
Experimental: (§1) As TNF-α and related signaling cascades represent crucial factors for the single-agent activity of IAP-targeting compounds,[29],[38],[39],[55] the viability inhibition of sensitive cell lines was evaluated in the presence and absence of this inflammatory stimulus. […] These effects were independent of IAP baseline levels (Figure S16), which is in agreement with the previous studies of IAP antagonists.
(§2) Cells were seeded in 384-well plates with respective treatments, and plates were incubated at 37 °C for 96 h. Viability assays were performed with or without the addition of TNF-α at 1 ng/mL. The cell viability readout was measured using the CellTiter-Glo Luminescent Cell Viability Assay (Promega, Madison, USA) and measured with a Synergy LX Multi-Mode plate reader (BioTek, Vermont, USA). All conditions were normalized to the DMSO-treated control. Data represents the mean ± SD of biological triplicates.

K562 = assay: CellTiter-Glo cell viability assay, K562; assay type: cell-based; details: Homo sapiens
Experimental: as §1, §2

cIAP2 = cIAP2 (Homo sapiens, UniProt Q13489); assay: Immunoblotting (western blot) quantification of cIAP2 levels in MM.1S cells; set-up: Dmax: dose or concentration left out as unconfirmed
Sequence of cIAP2 (Q13489 whole entry): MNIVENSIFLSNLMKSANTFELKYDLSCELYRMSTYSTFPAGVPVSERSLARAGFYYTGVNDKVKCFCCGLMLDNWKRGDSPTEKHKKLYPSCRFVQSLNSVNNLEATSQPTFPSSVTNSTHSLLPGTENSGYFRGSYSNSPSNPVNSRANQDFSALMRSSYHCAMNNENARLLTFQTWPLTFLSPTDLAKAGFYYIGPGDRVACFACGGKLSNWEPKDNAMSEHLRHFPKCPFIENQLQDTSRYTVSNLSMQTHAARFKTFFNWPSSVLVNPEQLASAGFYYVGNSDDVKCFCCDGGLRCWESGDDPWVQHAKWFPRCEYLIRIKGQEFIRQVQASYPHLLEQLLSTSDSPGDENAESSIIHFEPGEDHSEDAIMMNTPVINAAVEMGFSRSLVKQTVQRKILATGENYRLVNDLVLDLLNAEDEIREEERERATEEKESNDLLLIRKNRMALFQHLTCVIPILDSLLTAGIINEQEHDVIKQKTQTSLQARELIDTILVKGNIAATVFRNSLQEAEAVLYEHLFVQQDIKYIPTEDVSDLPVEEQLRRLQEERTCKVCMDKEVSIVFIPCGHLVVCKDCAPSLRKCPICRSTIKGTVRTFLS

JJN3 = assay: CellTiter-Glo cell viability assay, JJN3; assay type: cell-based; details: Homo sapiens
Experimental: as §1, §2

NCI-H929 = assay: CellTiter-Glo cell viability assay, NCI-H929; assay type: cell-based; details: Homo sapiens
Experimental: as §1, §2

SUDHL4 = assay: CellTiter-Glo cell viability assay, SUDHL4; assay type: cell-based; details: Homo sapiens
Experimental: as §1, §2

[1] = MM1.S, 16 h, read-out: %remaining protein cIAP1, MM.1S cells, 16 h treatment at 0.1 μM, normalized to loading control and DMSO
[2] = MM1.S, 16 h, read-out: %remaining protein cIAP2, MM.1S cells, 16 h treatment at 0.1 μM, normalized to loading control and DMSO
[3] = MM.1S cells, 16 h, western blot, 0.1 or 1 μM

Compound: CN[C@@H](C)C(=O)N[C@H](C(=O)N1C[C@@H](Oc2cccc(OCCOCCCCCCOCCCCCCNc3cccc4c3C(=O)N(C3CCC(=O)NC3=O)C4=O)c2)C[C@H]1C(=O)N[C@@H]1CCCc2ccccc21)C1CCCCC1 (stereo partly drawn) [PROTAC 25, (2S,4S)-1-((S)-2-Cyclohexyl-2-((S)-2-(methylamino)propanamido)acetyl)-4-(3-(2-((6-((6-((2-(2,6-dioxopiperidin-3-yl)-1,3-dioxoisoindolin-4-yl)amino)hexyl)oxy)hexyl)oxy)ethoxy)phenoxy)-N-((R)-1,2,3,4-tetrahydronaphthalen-1-yl)pyrrolidine-2-carboxamide]
logFC XIAP (XIAP): -3.7
XIAP level in global proteomics (in words) (XIAP): below the detection level
remaining activity at 0.1 µM (cIAP1; MM1.S, 16 h, read-out: %remaining protein cIAP1): 5%
IC50 (HEL; HEL, read-out: HEL): 300 nM
IC50 (K562; K562, read-out: K562): 380 nM
remaining activity at 0.1 µM (cIAP2; MM1.S, 16 h, read-out: %remaining protein cIAP2): 8%
IC50 (JJN3; JJN-3, read-out: JJN3): 180 nM
IC50 (NCI-H929; NCI-H929, 96 h, read-out: IC50 cell viability NCI-H929): 27 nM
IC50 (SUDHL4; SU-DHL-4, read-out: SUDHL4): 920 nM

Compound: CN[C@@H](C)C(=O)N[C@H](C(=O)N1C[C@@H](Oc2cccc(OCCCCC(=O)N[C@H](C(=O)N3C[C@H](O)C[C@H]3C(=O)N[C@@H](C)c3ccc(-c4scnc4C)cc3)C(C)(C)C)c2)C[C@H]1C(=O)N[C@@H]1CCCc2ccccc21)C1CCCCC1 [PROTAC 9, (2S,4S)-1-((S)-2-Cyclohexyl-2-((S)-2-(methylamino)propanamido)acetyl)-4-(3-((5-(((S)-1-((2S,4R)-4-hydroxy-2-(((S)-1-(4-(4-methylthiazol-5-yl)phenyl)ethyl)carbamoyl)pyrrolidin-1-yl)-3,3-dimethyl-1-oxobutan-2-yl)amino)-5-oxopentyl)oxy)phenoxy)-N-((R)-1,2,3,4-tetrahydronaphthalen-1-yl)pyrrolidine-2-carboxamide]
logFC XIAP (XIAP): -1.764
XIAP level in global proteomics (in words) (XIAP): below the detection level
remaining activity at 0.1 µM (cIAP1; [1]): 5%
Dmax (cIAP1; MM1.S, read-out: Dmax cIAP1 (maximum degradation), MM.1S cells, 16 h): 99%
Dmax cIAP1 (maximum degradation) (cIAP1; MM.1S cells, 16 h, at 0.1 μM): >99%
DC50 (cIAP1; read-out: DC50,16h cIAP1, MM.1S cells, 16 h, densitometric quantification of western blots, n = 4): 2.4 nM
IC50 (HEL; HEL, AML cell line, 96 h, TNFα-challenged, read-out: IC50 cell viability HEL): 1170 nM
IC50 (K562; K562, AML cell line, 96 h, TNFα-challenged, read-out: IC50 cell viability K562): 420 nM
remaining activity at 0.1 µM (cIAP2; [2]): 21%
Dmax (cIAP2; MM1.S, read-out: Dmax cIAP2 (maximum degradation), MM.1S cells, 16 h): 90%
Dmax cIAP2 (maximum degradation) (cIAP2; MM.1S cells, 16 h, at 0.1 μM): >90%
DC50 (cIAP2; read-out: DC50,16h cIAP2, MM.1S cells, 16 h, densitometric quantification of western blots, n = 4): 6.2 nM
IC50 (JJN3; JJN-3, MM cell line, 96 h, TNFα-challenged, read-out: IC50 cell viability JJN3): 1140 nM
IC50 (NCI-H929; NCI-H929, MM cell line, 96 h, TNFα-challenged, read-out: IC50 cell viability NCI-H929): 8.5 nM
IC50 (SUDHL4; SU-DHL-4, DLBCL cell line, 96 h, TNFα-challenged, read-out: IC50 cell viability SUDHL4): 1690 nM

XIAP level in global proteomics (in words) (XIAP): selective XIAP degradation
remaining activity at 0.1 µM (cIAP1; [1]): 27%
remaining activity at 0.1 µM (cIAP2; [2]): 46%
Compound: CN[C@@H](C)C(=O)N[C@H](C(=O)N1C[C@@H](Oc2cccc(OCCCCCCOCCCCCCOCCCCCCNc3cccc4c3C(=O)N(C3CCC(=O)NC3=O)C4=O)c2)C[C@H]1C(=O)N[C@@H]1CCCc2ccccc21)C1CCCCC1 (stereo partly drawn) [PROTAC 27, (2S,4S)-1-((S)-2-Cyclohexyl-2-((S)-2-(methylamino)propanamido)acetyl)-4-(3-((6-((6-((6-((2-(2,6-dioxopiperidin-3-yl)-1,3-dioxoisoindolin-4-yl)amino)hexyl)oxy)hexyl)oxy)hexyl)oxy)phenoxy)-N-((R)-1,2,3,4-tetrahydronaphthalen-1-yl)pyrrolidine-2-carboxamide]

Compound: CN[C@@H](C)C(=O)N[C@@H](C(=O)N1CCC[C@H]1C(=O)N[C@@H]1c2ccccc2C[C@@H]1OCC#CC#CCO[C@H]1Cc2ccccc2[C@H]1NC(=O)[C@@H]1CCCN1C(=O)[C@H](NC(=O)[C@H](C)NC)C1CCCCC1)C1CCCCC1 [AZD5582, reference compound]
XIAP level in global proteomics (in words) (XIAP): did not cause XIAP degradation
cIAP1 degradation (in words) (cIAP1; [3]): substantial degradation
IC50 (HEL; SI csv, head prints only the cell line, no quantity or unit, values parallel Table 1/S8, read-out: HEL): 64 nM
IC50 (K562; SI csv, head prints only the cell line, no quantity or unit, values parallel Table 1/S8, read-out: K562): 19 nM
cIAP2 degradation (in words) (cIAP2; [3]): substantial degradation
IC50 (JJN3; JJN-3, SI csv, head prints only the cell line, no quantity or unit, values parallel Table 1/S8, read-out: JJN3): 200 nM
IC50 (NCI-H929; SI csv, head prints only the cell line, no quantity or unit, values parallel Table 1/S8, read-out: NCI-H929): 14 nM
IC50 (SUDHL4; SU-DHL-4, SI csv, head prints only the cell line, no quantity or unit, values parallel Table 1/S8, read-out: SUDHL4): 1640 nM
